Test results as given in patent US4474780A, “Crystalline cephalosporin” (Eli Lilly and Company, priority 1983, dated 1984).
Like-named read-outs stand apart in the source and are kept apart here. Values belong to the compound of their own block, whether it stands above or below them.

How the values were obtained:
[1] = background statement; cited from earlier work
gram positive = details: background statement; cited from earlier work
[2] = background statement; cited from earlier work; remark: listed apart in the source
[3] = Solubility (saturated solution in water at 37° C.); format: physicochemical; details: for solubility: water, 37° C.
Method: For example, the compound forms a saturated solution in water at 37° C. according to the following table: […]

[4] = Titration (66% N,N-dimethylformamide/water); format: physicochemical; details: 66% dmf/water
From the text: Titration (66% N,N-dimethylformamide/water) pKa 5.5, 7.5, 11.2.

[5] = Stability of the crystal form; format: physicochemical; details: prolonged periods of time
[6] = Absorption following oral administration; format: in vivo
Pharmacokinetics = format: in vivo; details: in words; tetrahydrate, oral
[7] = system: Peptostreptococcus anaerobius; test: Activity against anaerobic cocci
Peptostrept. intermedius = test: Activity against anaerobic cocci

SMILES: CC1=C(C(=O)O)N2C(=O)C(NC(=O)[C@H](N)c3ccc4ccccc4c3)C2SC1 (stereo partly drawn) [7-(D-2-Naphthylglycylamido)-3-methyl-3-cephem-4-carboxylic acid]
pharmacokinetics [1]: favorable pharmacokinetics | gram positive activity (gram positive): excellent gram positive activity | orally active antibiotic [2]: potent orally active antibiotic

solubility in water ([3]; in words): only minimally soluble in water | solubility ([3]; pH 1.2): 8600 µg/mL | solubility ([3]; pH 2.0): 1700 µg/mL | solubility ([3]; pH 3.0): 200 µg/mL | solubility ([3]; pH 4.0): 200 µg/mL | solubility ([3]; pH 5.0): 200 µg/mL | solubility ([3]; pH 6.0): 300 µg/mL | solubility ([3]; pH 7.0): 800 µg/mL | solubility ([3]; pH 7.5): 1200 µg/mL | solubility ([3]; pH 8.0): 4100 µg/mL | solubility ([3]; pH 8.5): 7500 µg/mL | pKa ([4]; first value): 5.5 | pKa ([4]; second value): 7.5 | pKa ([4]; third value): 11.2 | pharmacokinetics (Pharmacokinetics): favorable pharmacokinetics
SMILES: CC1=C(C(=O)O)N2C(=O)C(NC(=O)[C@H](N)c3ccc4ccccc4c3)C2SC1 (stereo partly drawn) [7-(D-2-naphthylglycylamido)-3-methyl-3-cephem-4-carboxylic acid tetrahydrate]
stability [5]: very stable for prolonged periods of time | absorption following oral administration [6]: very well absorbed following oral administration | effective against anaerobic cocci [7]: effective | effective against anaerobic cocci (Peptostrept. intermedius): effective
